Data set [1] in a line: Overall animal (body) weight in the tumor studies (FIGS. 14-16, 20). Type of data set: in vivo, mice. The conditions noted are these: doses as in the respective tumor study.
Data set [2] deals with Hep3B-luc tumors. Nature of the data set: Orthotopic Hep3B-luc model, tumor bioluminescence. The settings on record: nude mice. Type of data set: in vivo, mice (Fox Chase CB17 SCID; nude). Here is the method:
Tumor progression was measured by luminescence. […] It is unclear whether this is related to treatment. […] Statistically significant differences were observed between treatment groups.
Sorafenib was given orally (PO) daily (QD) as a standard of care control. Tumor progression was measured by luminescence. No animal deaths were noted.

In data set [3] the test system is HEPG2 tumors. Nature of the data set: HepG2 subcutaneous xenograft in nude mice. The format is in vivo. The arrangement: dose or concentration left out as unconfirmed.
In data set [4] the test system is SKHEP1 tumors. Briefly: SKHEP1 subcutaneous xenograft in nude mice. The format is in vivo. The conditions noted are these: 50 mg/kg orally daily. Here is the method:
Animals were dosed every 5 days.
Sorafenib was given daily at 50 mg/kg.

Data set [5] can be described thus: Body weight and tolerability of tumor bearing mice.
Experimental: (§1) Hep 3B tumor cells were implanted into the left flank of thirty female nude mice to induce tumor. Changes in tumor volume was measured and the treatment initiated when mean tumor volume reached approximately 100-150 mm^3. Mice were divided into treatment and control groups so that mean tumor volume in each group were approximately equal. Control groups were injected either with PBS or with MYCi975, a small molecule comparator. The mice in each group were injected intratumorally with PBS (every 5 days for 3 doses then switched to IV for 2 doses), intravenously with ZF9-MQ1 (every 5 days at 3 mg/kg) or intraperitoneally with MYCi975 (once daily for 5 days/week). All animals were weighed daily and assessed visually. Changes in tumor volume for each group were measured 3 times per week. Over the course of 22 days, the changes in body weight from baseline and the mean tumor volume were measured using Paired T-test and was plotted (FIG. 14A-B).
All animals were weighed daily and assessed visually.
The test system of data set [6] is Hep 3B tumors. Nature of the data set: Hep 3B subcutaneous xenograft in nude mice, tumor volume.
Experimental: In this example, 0.6 mg/ml LNP (MC3) formulated effector (dCas9-MQ1/GD-17) was delivered to tumor sites by intratumoral injection on day 1 and day 7 (20 μl/mice) in the test group animals. The control group mice were injected at the tumor site either with PBS or with 0.6 mg/ml LNP (MC3) control effector dCas9/GD-SafeHarbor (20 μl/mice). Each control and test group consisted of 6 animals having SubQ Hep3B Xenografts (250 mm^3). Changes in tumor volume for each group was measured every 3 days for 15 days. At the end of 15 days, the changes in mean tumor volume were measured using Paired T-test and was plotted.
as §1
Hep 3B tumor cells were implanted into the left flank of seventy-two female nude mice to induce tumor. Changes in tumor volume was measured and the treatment initiated when mean tumor volume reached approximately 200 mm^3. Mice were divided into nine treatment groups (8 mice each) so that mean tumor volume in each group was approximately equal. The mice in each group were injected intravenously with PBS (every 5 days for 3 doses then every 3 days for 3 doses), ZF9-MQ1 at 1 mg/kg and 3 mg/kg (every 5 days for 3 doses then every 3 days for 3 doses), co-formulated ZF9-MQ1+ZF3-KRAB at 1 mg/kg and 3 mg/kg (every 5 days for 3 doses then every 3 days for 3 doses), negative control mRNA at 1 mg/kg and 3 mg/kg (every 5 days for 3 doses then every 3 days for 3 doses), intraperitoneal with MYCi975 at 100 mg/kg (once daily for 5 days per week) or intraperitoneal with cisplatin at 1 mg/kg (once every 15 days). All animals were weighed daily and assessed visually. Changes in tumor volume were measured 3 times per week.
Disease was induced in female nude mice by the implantation of Hep 3B tumor cells into the left flank. […] All animals were weighed daily and assessed visually. Tumors sizes were measured 3 times per week. […]

SMILES strings stand for the structures.

For `CNC(=O)c1cc(Oc2ccc(NC(=O)Nc3ccc(Cl)c(C(F)(F)F)c3)cc2)ccn1` [sorafenib], the “overall animal (body) weight, result in words” value in data set [1] is given as “initial drop in body weight with a later gain in overall body weight”. The “tumor luminescence relative to PBS controls” value in data set [2] (Example 45, 50 mg/kg orally daily) is “statistically significant reduction in tumor luminescence”; in data set [2] (Example 46, 50 mg/kg PO QD), “statistically significant reduction in tumor luminescence”. Moreover, the tumor growth result in data set [3] and in data set [4] was “statistically significant reduction in tumor growth” in each case. In addition, the weight gain result in data set [5] (SK-HEP-1 subcutaneous, 50 mg/kg orally daily) was “Statistically significant reductions in weight gain”. Further, the body weight result in data set [5] (orthotopic Hep3B-luc, SCID mice, ZF9-MQ1+ZF3-KRAB 1.5-6 mg/kg every 5 days, sorafenib 50 mg/kg daily orally) is on record as “initial drop in body weight”. Further, the “tumor growth relative to PBS controls” value in data set [6] (50 mg/kg orally every day (Example 35)) is recorded as “statistically significant reduction in tumor growth”; in data set [6] (Example 40, 50 mg/kg orally daily) it was “statistically significant reduction in tumor growth”. The “tumor growth relative to PBS control” value in data set [6] (Example 43, 25 mg/kg QD alone, 16 days) was “did not significantly reduce tumor growth”.
For the molecule `Cc1sc2c(c1C)C(c1ccc(Cl)cc1)=N[C@@H](CC(=O)OC(C)(C)C)c1nnc(C)n1-2` [JQ1], the “increase in tumor volume” value in data set [6] (Example 44, 25 mg/kg alone, 12 days) is “did not significantly inhibit”.
